Laboratory results: patent US20170326125A1, “MULTISUBSTITUTED AROMATIC COMPOUNDS AS INHIBITORS OF THROMBIN” (VERSEON CORPORATION, priority 2016, published 2017)

target: T1, Human thrombin (Homo sapiens, UniProt P00734); test: Inhibition of the protease activity of thrombin (chromogenic substrate S-2238); type: biochemical; conditions: Table C; 3 nM thrombin, 125 μM S-2238, 10 min pre-incubation, RT
T1 construct: purchased Haematologic Technologies Inc
Description: Compounds described herein can be assayed, by a variety of methods known in the art and described herein, for inhibition of biological activity, e.g., protease activity, of a variety of proteins, e.g., thrombin.
The thrombin activity reported herein (e.g., Table A) was obtained as follows. Human thrombin was obtained from Haematologic Technologies Inc. The chromogenic
Thrombin was assayed in buffer containing 0.05 M Tris (pH 7.4), 0.015 M NaCl and 0.01% PEG-8000. The final concentration of enzyme used was 3 nM thrombin. […] All assays were performed in 96-well microtiter plates at room temperature (RT). […] Inhibitor IC50 values were determined by adding test compound as ten point, three-fold serial dilutions in buffer solution, as known in the art. The plate was read at 10 minutes after substrate addition. The IC50 was calculated by plotting the percent (%) inhibition against compound concentration and fitting the data to a constrained four parameter sigmoidal curve, as known in the art.

| IC50 [nM] | Compound |
| --- | --- |
| < 100 | CC(=O)n1nc(-c2cccnc2)nc1NCc1ccco1 [Cmpd 363, 1-5-[(furan-2-ylmethyl)amino]-3-(pyridin-3-yl)-1H-1,2,4-triazol-1-ylethan-1-one] |
| < 100 | Cc1ccc(C(=O)n2nc(-c3cccnc3)nc2NCc2ccc(F)cc2)cc1 [Cmpd 401, N-[(4-fluorophenyl)methyl]-1-[(4-methylphenyl)carbonyl]-3-(pyridin-3-yl)-1H-1,2,4-triazol-5-amine] |
| 100 to 1000 | COc1ccc(CNc2nc(-c3cccnc3)nn2C(=O)c2ccccc2)cc1 [Cmpd 357, 1-benzoyl-N-[(4-methoxyphenyl)methyl]-3-(pyridin-3-yl)-1H-1,2,4-triazol-5-amine] |
| > 1000 | O=C(Nc1ccccc1Cl)c1nc(-n2cnnc2)n[nH]1 [Cmpd 391, N-(2-chlorophenyl)-3-(4H-1,2,4-triazol-4-yl)-1H-1,2,4-triazole-5-carboxamide] |
| < 100 | CCCC(=O)n1nc(-c2cccnc2)nc1NCc1ccc(OC)cc1 [Cmpd 322, 1-(5-[(4-methoxyphenyl)methyl]amino-3-(pyridin-3-yl)-1H-1,2,4-triazol-1-yl)butan-1-one] |
| < 100 | O=C(Cc1ccccc1)n1nc(-c2cccnc2)nc1NCc1ccc(F)cc1 [Cmpd 313, 1-(5-[(4-fluorophenyl)methyl]amino-3-(pyridin-3-yl)-1H-1,2,4-triazol-1-yl)-2-phenylethan-1-one] |
| < 100 | Cc1ccc(C(=O)n2nc(-c3cccnc3)nc2NCc2ccccc2)cc1 [Cmpd 411, N-benzyl-1-[(4-methylphenyl)carbonyl]-3-(pyridin-3-yl)-1H-1,2,4-triazol-5-amine] |
| > 1000 | Nc1nc(-c2cccnc2)n[nH]1 [Cmpd 1, 3-(pyridin-3-yl)-1H-1,2,4-triazol-5-amine] |

same assay, conditions: inhibition of the protease activity of thrombin

| IC50 [nM] | Compound |
| --- | --- |
| < 100 | O=C(c1ccoc1)n1nc(-c2ccncc2)nc1NCc1ccc(F)cc1 [Cmpd 214, N-[(4-fluorophenyl)methyl]-1-[(furan-3-yl)carbonyl]-3-(pyridin-4-yl)-1H-1,2,4-triazol-5-amine] |
| < 100 | COc1ccccc1C(=O)n1nc(-c2ccncc2)nc1NCc1ccc(F)cc1 [Cmpd 207, N-[(4-fluorophenyl)methyl]-1-[(2-methoxyphenyl)carbonyl]-3-(pyridin-4-yl)-1H-1,2,4-triazol-5-amine] |
| > 1000 | COc1ccccc1C(=O)c1cn(-c2ccccc2)nc1N(Cc1ccc(F)cc1)C(=O)OC(C)(C)C [Cmpd 303, tert-butyl N-[(4-fluorophenyl)methyl]-N-4-[(2-methoxyphenyl)carbonyl]-1-phenyl-1H-pyrazol-3-ylcarbamate] |
| < 100 | COc1ccccc1C(=O)n1nc(-c2cccnn2)nc1NCc1ccccc1 [Cmpd 254, N-benzyl-1-[(2-methoxyphenyl)carbonyl]-3-(pyridazin-3-yl)-1H-1,2,4-triazol-5-amine] |
| < 100 | COc1cccc(C(=O)n2nc(-c3ccccn3)nc2NCc2ccccc2)c1OC [Cmpd 233, N-benzyl-1-[(2,3-dimethoxyphenyl)carbonyl]-3-(pyridin-2-yl)-1H-1,2,4-triazol-5-amine] |
| < 100 | O=C(c1cccc2ccccc12)n1nc(-c2ccccn2)nc1NCc1ccccc1 [Cmpd 269, N-benzyl-1-[(naphthalen-1-yl)carbonyl]-3-(pyridin-2-yl)-1H-1,2,4-triazol-5-amine] |
| > 1000 | Fc1ccc(CNc2nc(-c3ccccn3)n(CCc3ccccc3)n2)cc1 [Cmpd 204, N-[(4-fluorophenyl)methyl]-1-(2-phenylethyl)-5-(pyridin-2-yl)-1H-1,2,4-triazol-3-amine] |

same assay, conditions: inhibition of the protease activity of thrombin; class symbols a/b/c

| IC50 [nM] | Compound |
| --- | --- |
| < 100 | CCC(=O)n1nc(-c2ccccn2)nc1NCc1ccc(OC)cc1 [Cmpd 93, 1-(5-[(4-methoxyphenyl)methyl]amino-3-(pyridin-2-yl)-1H-1,2,4-triazol-1-yl)propan-1-one] |
| < 100 | CC(C)C(=O)n1nc(-c2ccccn2)nc1NCc1ccccc1 [Cmpd 138, 1-[5-(benzylamino)-3-(pyridin-2-yl)-1H-1,2,4-triazol-1-yl]-2-methylpropan-1-one] |
| < 100 | COc1ccc(CNc2nc(-c3ccncc3)nn2C(=O)C(C)C)cc1 [Cmpd 95, 1-(5-[(4-methoxyphenyl)methyl]amino-3-(pyridin-4-yl)-1H-1,2,4-triazol-1-yl)-2-methylpropan-1-one] |
| 100 to 1000 | COc1ccccc1C(=O)n1nc(-c2cccs2)nc1NCc1ccc(F)cc1 [Cmpd 27] |
| 100 to 1000 | COC(=O)n1nc(-c2cccnc2)nc1NCc1ccc(F)cc1 [Cmpd 20] |
| 100 to 1000 | CC(C)CC(=O)n1nc(-c2ccccn2)cc1NCc1ccccc1 [Cmpd 144, 1-[5-(benzylamino)-3-(pyridin-2-yl)-1H-pyrazol-1-yl]-3-methylbutan-1-one] |
| > 1000 | CC(C)NC(=O)n1nc(-c2cccnc2)nc1NCc1ccc(F)cc1 [Cmpd 190, 5-[(4-fluorophenyl)methyl]amino-N-(propan-2-yl)-3-(pyridin-3-yl)-1H-1,2,4-triazole-1-carboxamide] |
| < 100 | COc1ccc(CNc2nc(-c3cccnc3)nn2C(=O)C(C)(C)C)cc1 [Cmpd 94, 1-(5-[(4-methoxyphenyl)methyl]amino-3-(pyridin-3-yl)-1H-1,2,4-triazol-1-yl)-2,2-dimethylpropan-1-one] |
| > 1000 | CCC(=O)n1nc(-c2cccnc2)nc1N [Cmpd 155, 1-[5-amino-3-(pyridin-3-yl)-1H-1,2,4-triazol-1-yl]propan-1-one] |
| > 1000 | CCOC(=O)c1cn(-c2ccccn2)nc1NCc1ccc(F)cc1 [Cmpd 46] |
| 100 to 1000 | COc1ccccc1C(=O)n1nc(-c2ccccn2)cc1NCc1cccs1 [Cmpd 116, 1-[(2-methoxyphenyl)carbonyl]-3-(pyridin-2-yl)-N-(thiophen-2-ylmethyl)-1H-pyrazol-5-amine] |
| 100 to 1000 | CC(C)(C)C(=O)n1nc(-c2ccccn2)cc1NCc1ccoc1 [Cmpd 166, 1-5-[(furan-3-ylmethyl)amino]-3-(pyridin-2-yl)-1H-pyrazol-1-yl-2,2-dimethylpropan-1-one] |
| > 1000 | CCC(=O)n1nc(-c2cccnc2)nc1NCCc1ccccc1 [Cmpd 22] |
| > 1000 | O=C(Nc1nc(C(=O)N2CCOCC2)n[nH]1)c1ccccc1Cl [Cmpd 170, 2-chloro-N-3-[(morpholin-4-yl)carbonyl]-1H-1,2,4-triazol-5-ylbenzamide] |
| > 1000 | Fc1ccc(CNc2cc(-c3ccccn3)nn2-c2ccccc2Cl)cc1 [Cmpd 45] |
| < 100 | COc1ccc(CNc2nc(-c3ccncc3)nn2C(=O)CC(C)C)cc1 [Cmpd 97, 1-(5-[(4-methoxyphenyl)methyl]amino-3-(pyridin-4-yl)-1H-1,2,4-triazol-1-yl)-3-methylbutan-1-one] |
| < 100 | CC(=O)Oc1ccccc1C(=O)n1nc(-c2ccccn2)nc1NCc1ccccc1 [Cmpd 177, 2-[5-(benzylamino)-3-(pyridin-2-yl)-1H-1,2,4-triazol-1-yl]carbonylphenyl acetate] |
| < 100 | COc1ccccc1C(=O)n1nc(-c2ccncn2)nc1NCc1ccccc1 [Cmpd 33] |
| < 100 | COc1ccccc1C(=O)n1nc(-c2ccccn2)nc1NCc1ccsc1 [Cmpd 117, 1-[(2-methoxyphenyl)carbonyl]-3-(pyridin-2-yl)-N-(thiophen-3-ylmethyl)-1H-1,2,4-triazol-5-amine] |
| > 1000 | CC(C)CC(=O)n1nc(-c2ccccc2F)cc1NCc1ccccc1 [Cmpd 134, 1-[5-(benzylamino)-3-(2-fluorophenyl)-1H-pyrazol-1-yl]-3-methylbutan-1-one] |
